In ChEMBL document CHEMBL4414641, “Chemical Constituents of Anneslea fragrans and Their Antiausterity Activity against the PANC-1 Human Pancreatic Cancer Cell Line” (J Nat Prod, 2019):
Activity calls are given as the source filed them. The calls are words filed in the database; no cut-off is given here.

Experiments:
[1] = test system: PANC-1; test: Anti-austerity activity against nutrient-deprived human PANC1 cells assessed as cell death incubated for 24 hrs by WST-8 assay; format: functional
[2] = test system: PANC-1; test: Cytotoxicity against nutrient-rich DMEM cultured human PANC1 cells at PC50 incubated for 24 hrs by WST-8 assay; format: cell-based; conditions: panc-1, 24 h
[3] = test system: PANC-1; test: Inhibition of cell migration in human PANC1 cells assessed as open wound area at 100 uM cultured in nutrient rich DMEM medium measured after 72 hrs by quantitative real-time imaging based wound healing assay (reference value: 5%); format: functional; parameters: scale not given: the % may be the effect or the level left
[4] = test system: PANC-1; test: Inhibition of cell migration in human PANC1 cells assessed as closed wound area at 100 uM cultured in nutrient rich DMEM medium measured within 24 hrs by quantitative real-time imaging based wound healing assay (reference value: 100%); format: functional; parameters: scale not given: the % may be the effect or the level left
[5] = test system: PANC-1; test: Inhibition of cell migration in human PANC1 cells assessed as decrease in velocity of cell migration at 100 uM cultured in nutrient rich DMEM medium measured every 15 mins for 72 hrs by quantitative real-time imaging analysis; format: functional, cell-based
[6] = test system: PANC-1; test: Inhibition of cell migration in human PANC1 cells at 100 uM cultured in nutrient rich DMEM medium measured every 15 mins for 72 hrs by quantitative real-time imaging analysis; format: functional, cell-based
[7] = test system: PANC-1; test: Inhibition of cell migration in human PANC1 cells assessed as open wound area at 100 uM cultured in nutrient rich DMEM medium measured after 48 hrs by quantitative real-time imaging based wound healing assay (reference value: 12%); format: functional; parameters: scale not given: the % may be the effect or the level left
[8] = test system: PANC-1; test: Inhibition of cell migration in human PANC1 cells assessed as open wound area at 100 uM cultured in nutrient rich DMEM medium measured after 24 hrs by quantitative real-time imaging based wound healing assay relative to control; format: functional; parameters: scale not given: the % may be the effect or the level left

`C[C@@H]1O[C@@H](O[C@H]2[C@H](Oc3c(-c4ccc(O)cc4)oc4cc(O)cc(O)c4c3=O)O[C@H](CO)[C@@H](O)[C@@H]2O)[C@H](O)[C@H](O)[C@H]1O` was tested. Which PC50 [1] did it give?
Its PC50 is 17.4 µM.

And the Activity [2]?
Its Activity is “Non-Toxic”.

Which Activity [2] does the source give for `O=C(CCc1ccc(O)c(O)c1)c1ccc(O)cc1O` here?
The Activity was “Non-Toxic”.

How did the PC50 [1] turn out when `O=C(CCc1ccc(O)c(O)c1)c1ccc(O[C@@H]2O[C@H](CO)[C@@H](O)[C@H](O)[C@H]2O)cc1O` was run?
The PC50 was 10.4 µM.

And the Activity [2]?
Its Activity is “Non-Toxic”.

Which results are given for `O=C(CCc1ccc(O)cc1)c1ccc(O)cc1O[C@@H]1O[C@H](CO)[C@@H](O)[C@H](O)[C@H]1O`?
PC50 [1]: >100 µM; Activity [2]: Non-Toxic

What does the source list for `O=C(/C(O)=C/c1ccc(O)c(O)c1)c1ccc(O[C@H]2COC(=O)[C@@H]2O)cc1O`?
PC50 [1]: >100 µM; Activity [2]: Non-Toxic

With `CC1(C)OC[C@H]2O[C@@H](Oc3ccc(C(=O)CCc4ccc(O)cc4)c(O)c3)[C@H](O)[C@@H](O)[C@@H]2O1` as the compound, how does the PC50 [1] read?
The PC50 was 60.9 µM.

What about the Activity [3] of the same compound?
The Activity was 72%.

What about the Activity [4] of the same compound?
The Activity was 38%.

What about the inhibition [5] of the same compound?
Its inhibition is “Active”.

What about the inhibition [6] of the same compound?
The inhibition was “Active”.

And the Activity [7]?
The Activity was 81%.

What about the Activity [2] of the same compound?
Its Activity is “Non-Toxic”.

What about the Activity [8] of the same compound?
The Activity was 93%.

Which PC50 [1] does the source give for `CC[C@H](/C=C/[C@@H](C)[C@H]1CC[C@H]2C3=CC[C@H]4C[C@@H](O)CC[C@]4(C)[C@H]3CC[C@]12C)C(C)C` here?
The PC50 was 58.1 µM.

What about the Activity [2] of the same compound?
The Activity was “Non-Toxic”.

For `Oc1cc(O)c2c(c1)O[C@H](c1ccc(O)c(O)c1)[C@H](O)C2` [(-)-EPICATECHIN], which PC50 [1] is on record?
The PC50 was 14.7 µM.

And the Activity [2]?
The Activity was “Non-Toxic”.

For `C[C@@H]1O[C@@H](Oc2c(-c3ccc(O)cc3)oc3cc(O)cc(O)c3c2=O)[C@H](O)[C@H](O)[C@H]1O` [AFZELIN], which PC50 [1] is on record?
Its PC50 is 8.9 µM.

What about the Activity [2] of the same compound?
The Activity was “Non-Toxic”.

What does the source list for `COc1cc(C[C@H]2C(=O)OC[C@@H]2Cc2ccc(OC)c(OC)c2)ccc1O` [ARCTIGENIN]?
PC50 [1]: 0.7 µM; Activity [2]: Non-Toxic

Which PC50 [1] does the source give for `C=C(C)[C@@H]1CC[C@]2(CO)CC[C@]3(C)[C@H](CC[C@@H]4[C@@]5(C)CC[C@H](O)C(C)(C)[C@@H]5CC[C@]43C)[C@@H]12` [BETULIN] here?
The PC50 was 8.4 µM.

And the Activity [2]?
Its Activity is “Non-Toxic”.

How did the PC50 [1] turn out when `O=C(/C=C/c1ccc(O)c(O)c1)c1ccc(O)cc1O` [BUTEIN] was run?
Its PC50 is 67 µM.

And the Activity [2]?
The Activity was “Non-Toxic”.

`O=C(CCc1ccc(O)cc1)c1ccc(O[C@@H]2O[C@H](CO)[C@@H](O)[C@H](O)[C@H]2O)cc1O` [CONFUSOSIDE] was tested. Which PC50 [1] did it give?
Its PC50 is 82.6 µM.

What about the Activity [2] of the same compound?
Its Activity is “Non-Toxic”.

What does the source list for `O=c1c(O[C@@H]2O[C@H](CO)[C@@H](O)[C@H](O)[C@H]2O)c(-c2ccc(O)c(O)c2)oc2cc(O)cc(O)c12` [ISOQUERCETIN]?
PC50 [1]: >100 µM; Activity [2]: Non-Toxic

What does the source list for `COc1cc2oc(=O)ccc2cc1O` [ISOSCOPOLETIN]?
PC50 [1]: 26.9 µM; Activity [2]: Non-Toxic

`C=C(C)[C@@H]1CC[C@]2(C)CC[C@]3(C)[C@H](CC[C@@H]4[C@@]5(C)CC[C@H](O)C(C)(C)[C@@H]5CC[C@]43C)[C@@H]12` [LUPEOL] was tested. Which PC50 [1] did it give?
The PC50 was 38.6 µM.

What about the Activity [2] of the same compound?
Its Activity is “Non-Toxic”.

Which results are given for `C[C@@H]1O[C@@H](OC[C@H]2O[C@@H](Oc3c(-c4ccc(O)cc4)oc4cc(O)cc(O)c4c3=O)[C@H](O)[C@@H](O)[C@@H]2O)[C@H](O)[C@H](O)[C@H]1O` [NICOTIFLOROSIDE]?
PC50 [1]: 67.1 µM; Activity [2]: Non-Toxic

How did the PC50 [1] turn out when `O=c1c(O)c(-c2ccc(O)c(O)c2)oc2cc(O)cc(O)c12` [QUERCETIN] was run?
The PC50 was 21.8 µM.

What about the Activity [2] of the same compound?
The Activity was “Non-Toxic”.
